Measurements as given in patent publication US8802678B2, “Carbonylated (aza) cyclohexanes as dopamine D3 receptor ligands” (Bioprojet, priority 2006, dated 2014).

Structure (SMILES)	melting point [°C]
COc1ccc(OC)c(N2CCN(CC[C@H]3CC[C@H](NC(=O)CC#N)CC3)CC2)c1 [Example 221, 2-Cyano-N-(4-{2-[4-(2,5-dimethoxyphenyl)piperazin-1-yl]ethyl}cyclohexyl)acetamide]	171 to 173
O=C(N[C@H]1CC[C@H](CCN2CCN(c3ccccc3F)CC2)CC1)C1CCCO1 (stereo partly shown) [Example 57, Tetrahydrofuran-2-carboxylic acid (4-{2-[4-(2-fluorophenyl)piperazin-1-yl]ethyl}cyclohexyl)amide]	119 to 120
CC(=O)CN1CCC(CCN2CCN(c3ccccc3Cl)CC2)CC1.Cl.Cl	265
CC(=O)CN1CCC(CCN2CCN(c3cc(C)ccc3Cl)CC2)CC1.Cl.Cl	283
COCC(=O)N[C@H]1CC[C@H](CCN2CCN(c3cccc(C(F)(F)F)c3)CC2)CC1.Cl	217
CC(=O)CN1CCC(CCN2CCN(c3ccc(C)c(F)c3)CC2)CC1.Cl.Cl	276
Cl.Cl.O=C(N[C@H]1CC[C@H](CCN2CCN(c3ccc(F)cc3F)CC2)CC1)[C@@H]1CCCN1 (stereo in doubt)	260
COCC(=O)N[C@H]1CC[C@H](CCN2CCN(c3ccccc3)CC2)CC1 [Example 60, 2-Methoxy-N-{4-[2-(4-phenylpiperazin-1-yl)ethyl]-cyclohexyl}acetamide]	136
COc1cc(N2CCN(CC[C@H]3CC[C@H](NC(=O)CC#N)CC3)CC2)cc(C(F)(F)F)c1 [Example 160, 2-Cyano-N-(4-{2-[4-(3-methoxy-5-trifluoromethylphenyl)piperazin-1-yl]ethyl}cyclohexyl)acetamide]	183 to 184
N#CCC(=O)N[C@H]1CC[C@H](CCN2CCN(c3ccccc3F)CC2)CC1 [Example 79, 2-Cyano-N-(4-{2-[4-(2-fluorophenyl)piperazin-1-yl]ethyl}cyclohexyl)acetamide]	179 to 180
CCN(CC)CCC(=O)N[C@H]1CC[C@H](CCN2CCN(c3cccc(C(F)(F)F)c3)CC2)CC1 [Example 167, 3-Diethylamino-N-(4-{2-[4-(3-trifluoromethylphenyl)piperazin-1-yl]ethyl}cyclohexyl)propanamide trans/cis 85/15]	77
CC(=O)CN1CCC(CCN2CC=C(c3ccccc3)CC2)CC1	80
N#CCC(=O)N[C@H]1CC[C@H](CCN2CC=C(c3cc(F)cc(C(F)(F)F)c3)CC2)CC1	163
N#CCCCC(=O)N[C@H]1CC[C@H](CCN2CCN(c3cccc(Cl)c3Cl)CC2)CC1 [Example 210, 4-Cyano-N-(4-{2-[4-(2,3-dichlorophenyl)piperazin-1-yl]ethyl}cyclohexyl)butanamide]	192
CC(=O)CN1CCC(CCN2CCN(c3cc(Cl)cc(C(F)(F)F)c3)CC2)CC1.Cl.Cl	289
CC(=O)CN1CCC(CCN2CCN(c3ccc(Cl)cc3)CC2)CC1.Cl.Cl	277
CC(=O)CN1CCC(CCN2CCN(c3ccc(C)c(C(F)(F)F)c3)CC2)CC1.Cl.Cl	325
CC(=O)C(=O)N1CCC(CCN2CCN(c3cccc4c3CCC4)CC2)CC1.Cl	225

The next lines start with the values.

melting point [°C]	Structure (SMILES)
165	N#CCCCC(=O)N[C@H]1CC[C@H](CCN2CCN(c3ccc(C(F)(F)F)cc3F)CC2)CC1 [Example 646, 4-Cyano-N-(4-{2-[4-(2-fluoro-4-trifluoromethylphenyl)piperazin-1-yl]ethyl}cyclohexyl)-butanamide]
169	NC(=O)CCC(=O)N[C@H]1CC[C@@H](CCN2CCN(c3cccc(F)c3)CC2)CC1 [Example 398, N-(4-{2-[4-(3-Fluorophenyl)-piperazin-1-yl]ethyl}cyclohexyl)-succinamide]
208	Cc1ccc(N2CCN(CC[C@H]3CC[C@H](NC(=O)CC#N)CC3)CC2)cc1F [Example 339, 2-Cyano-N-(4-{2-[4-(3-fluoro-4-methylphenyl)piperazin-1-yl]ethyl}cyclohexyl)acetamide]
191	N#Cc1cccc(N2CCN(CC[C@H]3CC[C@H](NC(=O)C4=CCCC4)CC3)CC2)c1 [Example 512, Cyclopent-1-enecarboxylic acid (4-{2-[4-(3-cyanophenyl)-piperazin-1-yl]ethyl}cyclohexyl) amide]
202	O=C(N[C@H]1CC[C@H](CCN2CCN(c3cccc(F)c3)CC2)CC1)C1=CCCC1 [Example 400, Cyclopent-1-enecarboxylic acid (4-{2-[4-(3-fluorophenyl)-piperazin-1-yl]ethyl}cyclohexyl) amide]
164	COc1ccc(C)cc1N1CCN(CC[C@H]2CC[C@H](NC(=O)CCCC#N)CC2)CC1 [Example 483, 4-Cyano-N-(4-{2-[4-(2-methoxy-5-methylphenyl)piperazin-1-yl]ethyl}cyclohexyl)butanamide]
204	COCCCC(=O)N[C@H]1CC[C@H](CCN2CCN(c3ccc(Cl)cc3)CC2)CC1 [Example 698, N-(4-{2-[4-(4-Chlorophenyl)-piperazin-1-yl]ethyl}cyclohexyl)-4-methoxybutanamide]
149	N#CCCCC(=O)N[C@H]1CC[C@H](CCN2CCN(c3ccc(F)c(C(F)(F)F)c3)CC2)CC1 [Example 430, 4-Cyano-N-(4-{2-[4-(4-fluoro-3-trifluoromethylphenyl)piperazin-1-yl]ethyl}cyclohexyl)butanamide]
180 to 183	Cc1c(Cl)cccc1N1CCN(CC[C@H]2CC[C@H](NC(=O)CCCC#N)CC2)CC1 [Example 258, N-(4-{2-[4-(3-Chloro-2-methylphenyl)piperazin-1-yl]ethyl}cyclohexyl)-4-cyanobutanamide]
133	CCOCC(=O)N[C@H]1CC[C@H](CCN2CCN(c3cc(F)c(F)c(F)c3)CC2)CC1 [Example 465, 2-Ethoxy-N-(4-{2-[4-(3,4,5-trifluorophenyl)piperazin-1-yl]ethyl}cyclohexyl)acetamide]
130	CCc1cccc(N2CCN(CC[C@H]3CC[C@H](NC(=O)CCCOC)CC3)CC2)c1 [Example 560, N-(4-{2-[4-(3-Ethylphenyl)piperazin-1-yl]ethyl}cyclohexyl)-4-methoxybutanamide]
171	COCCCC(=O)N[C@H]1CC[C@H](CCN2CCN(c3ccc(Cl)c(C(F)(F)F)c3)CC2)CC1 [Example 755, N-(4-{2-[4-(4-Chloro-3-trifluoromethylphenyl)piperazin-1-yl]ethyl}cyclohexyl)-4-methoxybutanamide]
130	CCOCC(=O)N[C@H]1CC[C@H](CCN2CCN(c3ccc(C)cc3)CC2)CC1 [Example 474, 2-Ethoxy-N-{4-[2-(4-p-tolylpiperazin-1-yl)ethyl]cyclohexyl}acetamide]
194	COCCCC(=O)N[C@H]1CC[C@H](CCN2CCN(c3cc(F)c(F)c(F)c3)CC2)CC1 [Example 568, 4-Methoxy-N-(4-{2-[4-(3,4,5-trifluorophenyl)piperazin-1-yl]ethyl}cyclohexyl)butanamide]
169	N#CCC(=O)N[C@H]1CC[C@H](CCN2CCN(c3ccccc3Oc3ccccc3)CC2)CC1 [Example 245, 2-Cyano-N-(4-{2-[4-(2-phenoxyphenyl)piperazin-1-yl]ethyl}cyclohexyl)acetamide]
179	CC(F)(F)c1cccc(N2CCN(CC[C@H]3CC[C@H](NC(=O)CCCC#N)CC3)CC2)c1 [Example 314, 4-Cyano-N-[4-(2-{4-[3-(1,1-difluoroethyl)phenyl]piperazin-1-yl}ethyl)cyclohexyl]butanamide]
209	O=C(N[C@H]1CC[C@H](CCN2CCN(c3cc(F)ccc3F)CC2)CC1)C1=CCCC1 [Example 441, Cyclopent-1-enecarboxylic acid (4-{2-[4-(2,5-difluorophenyl)-piperazin-1-yl]ethyl}cyclohexyl) amide]
188	COCCCC(=O)N[C@H]1CC[C@H](CCN2CCN(c3cccc(Cl)c3C)CC2)CC1 [Example 547, N-(4-{2-[4-(3-Chloro-2-methylphenyl)piperazin-1-yl]ethyl}cyclohexyl)-4-methoxybutanamide]
168	N#CCCCC(=O)N[C@H]1CC[C@H](CCN2CCN(c3cc(C(F)(F)F)ccc3Cl)CC2)CC1 [Example 404, N-(4-{2-[4-(2-Chloro-5-trifluoromethylphenyl)piperazin-1-yl]ethyl}cyclohexyl)-4-cyanobutanamide]
177	O=C(CC(F)(F)F)N[C@H]1CC[C@H](CCN2CCN(c3cc(C(F)(F)F)ccc3F)CC2)CC1 [Example 670, 3,3,3-Trifluoro-N-(4-{2-[4-(2-fluoro-5-trifluoromethylphenyl)piperazin-1-yl]ethyl}cyclohexyl) propanamide]
247	N#CCC(=O)N[C@H]1CC[C@H](CCN2CCN(c3ccc(Cl)cc3)CC2)CC1 [Example 275, N-(4-{2-[4-(4-Chlorophenyl)piperazin-1-yl]ethyl}cyclohexyl)-2-cyanoacetamide]
141	N#CCCCC(=O)N[C@H]1CC[C@H](CCN2CCN(c3ccc(F)c(F)c3)CC2)CC1 [Example 357, 4-Cyano-N-(4-{2-[4-(3,4-difluorophenyl)piperazin-1-yl]ethyl}cyclohexyl)butanamide]
154	O=C(CC1C=CCC1)N[C@H]1CC[C@H](CCN2CCN(c3cccc(C(F)(F)F)c3)CC2)CC1 (stereo partly shown) [Example 373, 2-Cyclopent-2-enyl-N-(4-{2-[4-(3-trifluoromethylphenyl)piperazin-1-yl]ethyl}cyclohexyl)acetamide]
147	COc1cc(N2CCN(CC[C@H]3CC[C@H](NC(=O)CCCC#N)CC3)CC2)cc(C(F)(F)F)c1 [Example 421, 4-Cyano-N-(4-{2-[4-(3-methoxy-5-trifluoromethylphenyl)piperazin-1-yl]ethyl}cyclohexyl)butanamide]
131	O=C(C[C@H]1CC[C@H](CCN2CCN(c3cccc(C(F)(F)F)c3)CC2)CC1)N1CCCC1 [Example 294, 1-Pyrrolidin-1-yl-2-(4-{2-[4-(3-trifluoromethylphenyl)piperazin-10yl]ethyl}cyclohexyl)ethanone]
